Reference: patent publication US8173654B2, “Triazolopyridazine compounds” (Janssen Pharmaceutica N.V., priority 2005, dated 2012)

Legend:
[1] = test system: U87MG glioblastoma tumors; assay: U87MG glioblastoma tumor xenograft model (tumor growth inhibition); type: in vivo, athymic nude mice; settings: for decrease of mean tumor volume compared to vehicle-treated group: Day 21, p<0.001
Description: The U87MG glioblsatoma cell line (Piedmont Research Center LLC) expresses the c-Met receptor and responds to Human Growth Factor (HGF). This study investigated whether treatment with an inhibitor of c-Met is efficacious against the U87MG glioblastoma tumor xenograft model. This study utilized a tumor growth inhibition (TGI) assay to test per os (p.o.) compound monotherapy in groups of fifteen nude mice. A control group was treated with vehicle, 20% Hydroxypropyl Beta-Cyclodextrin (HPBCD). All treatments began on Day 1 (D1) in mice bearing established subcutaneous (s.c.) U87MG tumors.
Female athymic nude mice (Harlan) were 10-11 weeks old with a BW range of 18.1-25.0 g on D1 of the study. The animals were fed ad libitum water (reverse osmosis, 1 ppm Cl) and NIH 31 Modified and Irradiated Lab Diet® consisting of 18.0% crude protein, 5.0% crude fat, and 5.0% crude fiber. The mice were housed on irradiated ALPHA-dri® Bed-o-cobs® Laboratory Animal Bedding in static microisolators on a 12-hour light cycle at 21-22° C. (70-72° F.) and 40-60% humidity. All animals were housed in a Laboratory Animal Medicine facility that is fully accredited by the American Association for Assessment and Accreditation of Laboratory Animal Care (AAALAC). All procedures involving animals were conducted in compliance with the NIH Guide for the Care and Use of Laboratory Animals and all protocols were approved by an Internal Animal Care and Use Committee (IACUC).
Xenografts were initiated from U87MG human glioblastoma tumor fragments maintained by serial transplantation in athymic nude mice. Each test mouse received a subcutaneous U87MG tumor fragment (1 mm^3) implanted in the right flank, and the growth of tumors was monitored as the average size approached 200 mm^3. Twelve days later, on Day 1 of the study, the animals were sorted into 4 groups (n=12-15 mice/group) with individual tumor volumes ranging from 172-352 mm^3 and group mean tumor volumes of 216 mm^3. Tumor volume was calculated using the formula:
[formula] where w=width and l=length in mm of the tumor. Tumor weight may be estimated with the assumption that 1 mg is equivalent to 1 mm^3 of tumor volume. Drug Treatment
Dosing solutions of compounds of the present invention were prepared fresh weekly in a vehicle consisting of 20% Hydroxypropyl Beta-Cyclodextrin (HPBCD) in water. In all groups, the dosing volume of 0.2 mL/20-g mouse was scaled to the body weight of each animal. Doses were given to allow for the HCl salt form of the compound.
TGI was calculated from the difference between the median tumor volumes of vehicle-treated and drug-treated mice, expressed as a percentage of the median tumor volume of the vehicle-treated control group, by the following relation:
The MTV (n) is defined as the median tumor volume (MTV) for the number of animals, n, remaining in the study on that day.
Animals were weighed daily for the first five days of the study and then twice weekly. The mice were examined frequently for overt signs of any adverse, drug-related side effects, and clinical signs of toxicity were recorded when observed. Acceptable toxicity is defined as a group mean body-weight (BW) loss of less than 20% during the study, and not more than one treatment-related (TR) death among ten animals. A death is classified as TR if it is attributable to treatment side effects as evidenced by clinical signs and/or necropsy, or due to unknown causes during the dosing period or within 10 days of the last dose. A death is classified as non treatment-related (NTR) if there is no evidence that the death was related to drug side effects. A death is classified as non treatment-related unknown (NTRu) if the cause of death is unknown.
The Mann-Whitney U-test, for analysis of medians, was used to determine the statistical significance of the difference between the MTVs. Prism 3.03 (GraphPad) for Windows was used for the statistical analyses and graphic presentations. […]

HepG2 cells = assay: HepG2 cellular scatter assay (HGF-induced, RT-CES impedance); type: cell-based; settings: Homo sapiens, 40 ng/ml HGF
Excerpt: Human Growth Factor (HGF) and its receptor (c-Met) are involved in cellular motility. Indeed HGF was also identified as Scatter Factor (SF), based on its powerful motility effect on certain cell types. Cellular motility is critical for pathological processes of oncologic disease, most importantly, the establishment of metastatic lesions distant from the primary tumor and formation of new blood vessels (angiogenesis). One therapeutic hypothesis is that this movement of cell types may be blunted or eliminated by the use of c-Met kinase inhibitors. (See: Jiang, W. C, Martin, T. A., Parr, C., Davies, G., Matsumoto, K. and Nakamura, T. Critical Reviews in Oncology/Hematology 53 (2005) 35-69. and references cited therein.) It should also be noted that cellular motility, especially with regard to angiogenesis, is important in other disease states.
Cellular scatter was measured with a Real-Time Cell Electronic Sensing system (RT-CES), from ACEA Biosciences Inc. (San Diego, Calif.). The RT-CES system uses specialized RT-ACE microtiter plates (cat:RCD96, ACEA Biosciences Inc.) to non-invasively quantify cellular status in real-time. The interaction of cells with the surface of the plates, which are integrated with microelectronic sensor arrays, leads to the generation of a cell-electrode impedance response. A higher impedance value indicates more cell attachment and thus less cellular scatter.
50 μl of Assay Media (MEM supplemented with 10% FBS, 2 mM L-glutamine, 1.5 g/L sodium bicarbonate, 1 mM sodium pyruvate, and 0.1 mM non-essential amino acids) was added into 96-well RT-ACE plates and recorded for 30 min on the RT-CES. 50 μl of HepG2 cells (cat: HB-8065, ATCC) were added into each well ([…]). The plate was read in RT-CES and incubated for 20-24 hours. After the 20-24 hours incubation, 50 μl of Assay Media containing different concentrations of testing compounds was added into each well and incubated for 1 hour. Finally, 50 μl of Assay Media containing 160 ng/ml of HGF was added into each well (40 ng/ml in 200 μl). The plate was incubated and read in the RT-CES for 20-24 hours, with a record time every 15 minutes. The positive control was HGF without compounds and negative control was no-HGF without compound. All determinations were performed in duplicate wells and IC50 values were calculated using GraphPad Prism software (GraphPad Software; San Diego, Calif.).

c-Met [2] = biological target: T1, c-Met (Homo sapiens, UniProt P08581); assay: Cell based ELISA assay for HGF stimulated c-Met phosphorylation in S114 cells; design: expressed in transfected cells; host or cells: S114 (murine NIH 3T3 derived); settings: read-out: c-Met Cell ELISA IC-50
Target sequence in this assay (P08581 25-1390): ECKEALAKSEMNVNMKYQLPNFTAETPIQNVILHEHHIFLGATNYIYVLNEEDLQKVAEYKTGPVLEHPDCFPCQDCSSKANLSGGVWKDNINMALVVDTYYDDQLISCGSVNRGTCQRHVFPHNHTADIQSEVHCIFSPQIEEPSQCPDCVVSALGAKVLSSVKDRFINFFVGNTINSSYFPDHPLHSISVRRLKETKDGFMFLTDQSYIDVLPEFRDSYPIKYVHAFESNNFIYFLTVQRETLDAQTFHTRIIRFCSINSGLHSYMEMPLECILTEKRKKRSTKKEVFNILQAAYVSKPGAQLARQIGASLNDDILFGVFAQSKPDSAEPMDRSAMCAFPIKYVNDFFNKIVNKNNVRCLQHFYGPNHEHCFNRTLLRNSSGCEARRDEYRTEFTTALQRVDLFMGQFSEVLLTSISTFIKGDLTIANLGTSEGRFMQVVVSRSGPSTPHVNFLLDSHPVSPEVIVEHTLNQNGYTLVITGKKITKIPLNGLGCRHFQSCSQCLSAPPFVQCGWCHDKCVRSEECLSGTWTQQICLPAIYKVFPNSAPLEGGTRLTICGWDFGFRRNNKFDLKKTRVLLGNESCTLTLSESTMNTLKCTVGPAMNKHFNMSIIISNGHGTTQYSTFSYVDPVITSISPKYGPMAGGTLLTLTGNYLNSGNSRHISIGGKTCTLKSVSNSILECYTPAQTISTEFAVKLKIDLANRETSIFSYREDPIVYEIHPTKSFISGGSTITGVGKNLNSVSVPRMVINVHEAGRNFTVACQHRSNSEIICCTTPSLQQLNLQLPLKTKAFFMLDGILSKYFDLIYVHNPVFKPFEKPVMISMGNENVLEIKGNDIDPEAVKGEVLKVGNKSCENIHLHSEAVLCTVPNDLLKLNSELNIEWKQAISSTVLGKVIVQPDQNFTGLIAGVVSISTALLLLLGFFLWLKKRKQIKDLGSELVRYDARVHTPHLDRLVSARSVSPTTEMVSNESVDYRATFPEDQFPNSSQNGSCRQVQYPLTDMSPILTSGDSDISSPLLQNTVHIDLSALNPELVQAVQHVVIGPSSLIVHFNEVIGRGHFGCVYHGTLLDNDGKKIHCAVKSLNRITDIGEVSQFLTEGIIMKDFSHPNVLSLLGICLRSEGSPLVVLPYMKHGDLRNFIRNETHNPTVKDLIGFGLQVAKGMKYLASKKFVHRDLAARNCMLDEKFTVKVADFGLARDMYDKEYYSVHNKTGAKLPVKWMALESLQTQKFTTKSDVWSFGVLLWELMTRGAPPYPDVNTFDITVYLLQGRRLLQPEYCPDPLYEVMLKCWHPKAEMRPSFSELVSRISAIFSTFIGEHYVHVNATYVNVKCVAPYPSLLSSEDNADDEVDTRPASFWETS

c-Met [3] = biological target: T1, c-Met; assay: Delfia autophosphorylation kinase assay on the c-Met; type: biochemical; design: The purified His6 tagged cytoplasmic domain of c-Met was diluted to a concentration of 500 ng/ml; host or cells: Sf9 insect cells (baculovirus, pFastBacHTa); settings: His6 tagged cytoplasmic domain of c-Met, 1 μM ATP; read-out: cMet Delfia autophos IC-50
Procedure, shortened: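 Time-resolved fluorescence tracked autophosphorylation of the His6-tagged c-Met cytoplasmic domain, dispensed at 500 ng/ml onto nickel-chelate plates. Reaction buffer held 1 μM ATP, 10 mM MgCl2, vanadate and DTT at pH 8.0, for 1 h at room temperature.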
Target sequence in this assay (P08581 956-1390 limits assumed): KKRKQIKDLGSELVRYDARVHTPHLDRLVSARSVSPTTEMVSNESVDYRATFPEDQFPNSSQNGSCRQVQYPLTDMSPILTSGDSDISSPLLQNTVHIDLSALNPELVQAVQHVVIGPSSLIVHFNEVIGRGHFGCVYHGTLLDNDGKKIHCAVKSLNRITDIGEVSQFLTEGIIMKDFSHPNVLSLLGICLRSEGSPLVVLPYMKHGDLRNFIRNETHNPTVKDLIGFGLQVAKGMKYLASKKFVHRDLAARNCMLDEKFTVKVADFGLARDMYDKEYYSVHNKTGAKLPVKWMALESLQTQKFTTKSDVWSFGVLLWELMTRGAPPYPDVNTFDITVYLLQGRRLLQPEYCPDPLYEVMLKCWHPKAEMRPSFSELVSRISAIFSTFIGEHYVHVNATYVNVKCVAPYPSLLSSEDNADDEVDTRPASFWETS

Row | IC50 (HepG2 cells) [nM] | IC50 (c-Met [2]) [nM] | IC50 (c-Met [3]) [nM] | Structure (SMILES) | decrease of mean tumor volume compared to vehicle-treated group ([1]; 30 mg/kg p.o. b.i.d., 21 consecutive days) [%] | decrease of mean tumor volume compared to vehicle-treated group ([1]; 50 mg/kg p.o. b.i.d., 21 consecutive days) [%] | tumor regression ([1]; 50 mg/kg p.o. b.i.d., 21 days) | inhibition of growth of U87MG tumors ([1]; 30 and 50 mg/kg p.o. b.i.d., 21 consecutive days)
1 | – | – | – | Cn1cc(-c2ccc3nnc(Cc4ccc5ncccc5c4)n3n2)cn1 [Example 1, 6-[6-(1-Methyl-1H-pyrazol-4-yl)-[1,2,4]triazolo[4,3-b]pyridazin-3-ylmethyl]-quinoline] | 66 | 97 | Tumor regression was observed | statistically significant, dose-dependent inhibition of growth
2 | 287 | 12 | 1 | FC(F)(c1ccc2ncccc2c1)c1nnc2ccc(-c3ccncc3)nn12 [Example 60, 6-[Difluoro-(6-pyridin-4-yl-[1,2,4]triazolo[4,3-b]pyridazin-3-yl)-methyl]-quinoline] | – | – | – | –
3 | 715 | 34 | 2.8 | Cc1cc(-c2ccc3nnc(C(F)(F)c4ccc5ncccc5c4)n3n2)ccn1 [Example 86, 6-{Difluoro-[6-(2-methyl-pyridin-4-yl)-[1,2,4]triazolo[4,3-b]pyridazin-3-yl]-methyl}-quinoline] | – | – | – | –
4 | 1160 | 3 | 3 | CN1CCN(C(=O)c2ccc(-c3ccc4nnc(C(F)(F)c5ccc6ncccc6c5)n4n3)s2)CC1 [Example 97, {5-[3-(Difluoro-quinolin-6-yl-methyl)-[1,2,4]triazolo[4,3-b]pyridazin-6-yl]thiophen-2-yl}-(4-methyl-piperazin-1-yl)-methanone] | – | – | – | –
5 | 64 | 4 | 2 | CS(=O)(=O)N1CCN(C(=O)c2ccc(-c3ccc4nnc(C(F)(F)c5ccc6ncccc6c5)n4n3)s2)CC1 [Example 98, {5-[3-(Difluoro-quinolin-6-yl-methyl)-[1,2,4]triazolo[4,3-b]pyridazin-6-yl]-thiophen-2-yl}-(4-methanesulfonyl-piperazin-1-yl)-methanone] | – | – | – | –
6 | 1100 | 34 | 2 | CS(=O)(=O)n1cc(-c2ccc3nnc(C(F)(F)c4ccc5ncccc5c4)n3n2)cn1 [Example 99, 6-{Difluoro-[6-(1-methanesulfonyl-1H-pyrazol-4-yl)-[1,2,4]triazolo[4,3-b]pyridazin-3-yl]-methyl}-quinoline] | – | – | – | –
7 | 543 | 37 | 2 | CCCc1ncc(-c2ccc3nnc(C(F)(F)c4ccc5ncccc5c4)n3n2)s1 [Example 104, 6-{Difluoro-[6-(2-propyl-thiazol-5-yl)-[1,2,4]triazolo[4,3-b]pyridazin-3-yl]-methyl}-quinoline] | – | – | – | –
